12 compounds from ChEMBL document CHEMBL4673282, “Identification of a New Heterocyclic Scaffold for Inhibitors of the Polo-Box Domain of Polo-like Kinase 1” (J Med Chem, 2020) can be followed below.

Structures are written as SMILES. pIC50: −log10 of the molar value. Values after ≈ are worked out from the molar mass of the structure shown. Active and inactive are the calls of the source. No cut-off for these calls is given here. Bounds are passed on as bounds.

Data set [1] is described as follows: Aqueous solubility of compound. As to conditions: buffer. The format is physicochemical.
The target of data set [2] is T1, Serine/threonine-protein kinase PLK1 (Homo sapiens, UniProt P53350). Put plainly: Inhibition of biotin-Ahx-CETFDPPLHSpTAI-NH2 binding to recombinant human full-length HA-EGFP-tagged Plk1 PBD expressed in HEK293A cells preincubated for 30 mins followed by biotin-Ahx-CETFDPPLHSpTAI-NH2 addition and measured after 1 hr by 3,3',5,5'-tetramethylbenzidine substrate based ELISA. The format is cell-based, HEK293-A.

For data set [3], the target named is Serine/threonine-protein kinase PLK2 (Homo sapiens, UniProt Q9NYY3). Put plainly: Inhibition of FITC-Ahx-DPPLHSpTAI-NH2 binding to Plk2 PBD (unknown origin) expressed in bacterial expression system measured after 30 mins by fluorescence polarization assay. As to conditions: 0.5 h. For orientation: Polarisation of emitted light reports the rotation of a fluorescent probe.

For data set [4], the target named is Serine/threonine-protein kinase PLK3 (Homo sapiens) (UniProt Q9H4B4). As to the kind of experiment: Inhibition of FITC-Ahx-DPPLHSpTAI-NH2 binding to Plk3 PBD (unknown origin) expressed in bacterial expression system measured after 30 mins by fluorescence polarization assay.
A further data set can be described thus: in vitro. As to conditions: PAMPA. On the technique in general: PAMPA measures passive passage across an artificial lipid membrane.
Data set [5] can be described thus: Half life in rat liver microsomes at 1 uM measured up to 60 mins in presence of NADPH generating system. Particulars: 1 h. For orientation: Microsomes from liver hold many membrane-bound enzymes, among them those of drug oxidation.
The conditions of data set [6]: PAMPA.
Description: Permeability of the compound by PAMPA
In data set [7] the test system is HeLa. As to the kind of experiment: Antiproliferative activity against human HeLa cells assessed as reduction in cell population at 100 uM measured after 3 days by DAPI staining based phase contrast microscopic analysis relative to control. The format is functional. Set-up: scale not given: the % may be the effect or the level left. Particulars: time 3 day.
Data set [8] is described as follows: Drug metabolism in C57BL/6 mouse assessed as demethylation in serum at 20 mg/kg, ip measured after 15 to 240 mins by UPLC-ESI-QTOFMS analysis. As to conditions: in vivo, time 15-240 min. In kind it is ADME, organism-based.
Data set [9] has as its target T1, Serine/threonine-protein kinase PLK1. Put plainly: Inhibition of Plk1 PBD in human HeLa cells assessed as reduction in plk1 localization to centrosomes at 100 uM measured after 12 hrs by immunostaining based assay. The format is cell-based.
Data set [10] can be described thus: Half life in human cytosol. In kind it is ADME, subcellular.
A short description of data set [11]: Drug metabolism in C57BL/6 mouse assessed as hydroxylation in serum at 20 mg/kg, ip measured after 15 mins by UPLC-ESI-QTOFMS analysis. As to conditions: in vivo. In kind it is ADME, organism-based.
Data set [12] is described as follows: Toxicity in C57BL/6 mouse at 20 mg/kg, ip. The format is organism-based. Particulars: in vivo.
The test system of data set [13] is HeLa. Put plainly: Induction of mitotic arrest in human HeLa cells assessed as rounded cells with apoptosis at 100 uM measured after 12 hrs by DAPI staining based phase contrast microscopic analysis. In kind it is functional, cell-based.
Data set [14] has as its system HeLa. As to the kind of experiment: Induction of mitotic arrest in human HeLa cells assessed as abnormal spindle morphology at 100 uM measured after 12 hrs by DAPI staining based immunoassay. In kind it is functional, cell-based.
A short description of data set [15]: Half life in rat cytosol. In kind it is ADME, subcellular.
Data set [16] is described as follows: Half life in mouse cytosol. The format is ADME, subcellular.
Data set [17] addresses T1, Serine/threonine-protein kinase PLK1. Put plainly: Inhibition of Plk1 PBD in human HeLa cells assessed as reduction in plk1 localization to kinetochores at 100 uM measured after 12 hrs by immunostaining based assay. The format is cell-based.
Data set [18] concerns HeLa. As to the kind of experiment: Induction of mitotic arrest in human HeLa cells assessed as apperance of aberrant chromosomal morphology at 100 uM measured after 12 hrs by DAPI staining based phase contrast microscopic analysis. In kind it is functional, cell-based.
The target in data set [19] is T2, Muscarinic acetylcholine receptor M4 (Homo sapiens, UniProt P08173).
T2 sequence (P08173 whole entry): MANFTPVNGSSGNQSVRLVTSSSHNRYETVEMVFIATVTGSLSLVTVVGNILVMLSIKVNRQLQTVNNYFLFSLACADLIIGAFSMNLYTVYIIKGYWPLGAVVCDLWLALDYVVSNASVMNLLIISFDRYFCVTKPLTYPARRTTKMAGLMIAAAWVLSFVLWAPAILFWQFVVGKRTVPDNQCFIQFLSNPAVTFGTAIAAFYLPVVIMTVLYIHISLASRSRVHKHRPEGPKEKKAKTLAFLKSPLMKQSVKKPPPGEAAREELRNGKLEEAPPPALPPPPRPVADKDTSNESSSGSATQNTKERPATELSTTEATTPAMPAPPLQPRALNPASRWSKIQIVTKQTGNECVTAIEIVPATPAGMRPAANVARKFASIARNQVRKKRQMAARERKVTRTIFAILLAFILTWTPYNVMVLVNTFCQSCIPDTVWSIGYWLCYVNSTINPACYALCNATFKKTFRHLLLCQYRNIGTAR
As to the kind of experiment: Inhibition of M4 (unknown origin) at 10 uM relative to control.

The target of data set [20] is Muscarinic acetylcholine receptor M3 (Homo sapiens, UniProt P20309). As to the kind of experiment: Inhibition of M3 (unknown origin) at 10 uM relative to control.
Data set [21] addresses T3, Muscarinic acetylcholine receptor M5 (Homo sapiens, UniProt P08912).
T3 sequence (P08912 whole entry): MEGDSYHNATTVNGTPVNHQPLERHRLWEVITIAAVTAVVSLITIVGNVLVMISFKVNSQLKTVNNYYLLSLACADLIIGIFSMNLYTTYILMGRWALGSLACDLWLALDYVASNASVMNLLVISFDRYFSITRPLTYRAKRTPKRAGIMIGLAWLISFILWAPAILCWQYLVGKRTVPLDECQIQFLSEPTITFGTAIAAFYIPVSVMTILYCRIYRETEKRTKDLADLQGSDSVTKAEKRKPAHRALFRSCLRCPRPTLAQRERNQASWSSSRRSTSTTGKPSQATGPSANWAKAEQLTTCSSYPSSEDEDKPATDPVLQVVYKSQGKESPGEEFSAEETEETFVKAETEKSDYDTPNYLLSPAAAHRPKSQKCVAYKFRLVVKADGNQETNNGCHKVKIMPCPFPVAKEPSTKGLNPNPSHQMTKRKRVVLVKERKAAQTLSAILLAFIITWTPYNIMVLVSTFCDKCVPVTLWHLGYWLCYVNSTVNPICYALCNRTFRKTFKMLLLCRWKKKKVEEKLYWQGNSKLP
As to the kind of experiment: Inhibition of M5 (unknown origin) at 10 uM relative to control.

Broadly, the solubility is the concentration that dissolves in the medium under given conditions. Broadly, the pIC50 is −log10 of the IC50, conventionally taken in molar units. In general, inhibition refers to the change of the read-out against control, counted positive when it falls. A word on the Papp: it is a coefficient for how fast a substance crosses the barrier.

T1 sequence (P53350 whole entry): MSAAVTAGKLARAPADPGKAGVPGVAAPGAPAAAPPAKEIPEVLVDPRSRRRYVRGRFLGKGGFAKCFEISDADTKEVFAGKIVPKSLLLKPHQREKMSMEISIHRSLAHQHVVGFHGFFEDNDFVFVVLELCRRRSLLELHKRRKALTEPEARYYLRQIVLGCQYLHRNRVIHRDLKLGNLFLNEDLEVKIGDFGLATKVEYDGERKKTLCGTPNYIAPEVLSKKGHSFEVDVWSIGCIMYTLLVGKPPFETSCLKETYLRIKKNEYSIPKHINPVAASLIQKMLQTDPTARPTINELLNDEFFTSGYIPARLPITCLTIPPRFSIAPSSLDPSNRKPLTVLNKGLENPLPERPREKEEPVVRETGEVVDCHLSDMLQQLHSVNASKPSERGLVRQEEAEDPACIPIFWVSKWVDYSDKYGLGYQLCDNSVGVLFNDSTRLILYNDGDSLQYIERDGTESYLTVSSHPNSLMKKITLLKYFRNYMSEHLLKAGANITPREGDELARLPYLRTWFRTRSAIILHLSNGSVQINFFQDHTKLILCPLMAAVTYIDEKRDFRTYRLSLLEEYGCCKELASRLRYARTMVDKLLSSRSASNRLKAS
Serine/threonine-protein kinase PLK3 (Homo sapiens), sequence (Q9H4B4 whole entry, looked up): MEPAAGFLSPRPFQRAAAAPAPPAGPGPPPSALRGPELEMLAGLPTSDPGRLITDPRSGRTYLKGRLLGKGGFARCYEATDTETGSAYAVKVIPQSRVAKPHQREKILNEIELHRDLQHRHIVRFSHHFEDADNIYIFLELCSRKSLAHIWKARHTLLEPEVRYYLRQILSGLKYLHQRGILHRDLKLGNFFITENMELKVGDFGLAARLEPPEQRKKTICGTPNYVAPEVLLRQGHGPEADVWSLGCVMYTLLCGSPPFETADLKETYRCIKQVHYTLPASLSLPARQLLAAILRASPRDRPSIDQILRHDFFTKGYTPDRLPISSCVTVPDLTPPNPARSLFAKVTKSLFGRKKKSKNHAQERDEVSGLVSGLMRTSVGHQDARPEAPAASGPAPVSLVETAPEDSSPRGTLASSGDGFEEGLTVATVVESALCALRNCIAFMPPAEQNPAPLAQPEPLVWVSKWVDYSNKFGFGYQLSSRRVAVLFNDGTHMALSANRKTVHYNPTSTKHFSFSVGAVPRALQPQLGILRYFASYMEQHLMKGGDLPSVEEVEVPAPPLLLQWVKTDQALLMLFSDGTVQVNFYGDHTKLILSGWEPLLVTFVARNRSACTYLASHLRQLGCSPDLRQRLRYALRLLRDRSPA
Serine/threonine-protein kinase PLK2, sequence (Q9NYY3 whole entry): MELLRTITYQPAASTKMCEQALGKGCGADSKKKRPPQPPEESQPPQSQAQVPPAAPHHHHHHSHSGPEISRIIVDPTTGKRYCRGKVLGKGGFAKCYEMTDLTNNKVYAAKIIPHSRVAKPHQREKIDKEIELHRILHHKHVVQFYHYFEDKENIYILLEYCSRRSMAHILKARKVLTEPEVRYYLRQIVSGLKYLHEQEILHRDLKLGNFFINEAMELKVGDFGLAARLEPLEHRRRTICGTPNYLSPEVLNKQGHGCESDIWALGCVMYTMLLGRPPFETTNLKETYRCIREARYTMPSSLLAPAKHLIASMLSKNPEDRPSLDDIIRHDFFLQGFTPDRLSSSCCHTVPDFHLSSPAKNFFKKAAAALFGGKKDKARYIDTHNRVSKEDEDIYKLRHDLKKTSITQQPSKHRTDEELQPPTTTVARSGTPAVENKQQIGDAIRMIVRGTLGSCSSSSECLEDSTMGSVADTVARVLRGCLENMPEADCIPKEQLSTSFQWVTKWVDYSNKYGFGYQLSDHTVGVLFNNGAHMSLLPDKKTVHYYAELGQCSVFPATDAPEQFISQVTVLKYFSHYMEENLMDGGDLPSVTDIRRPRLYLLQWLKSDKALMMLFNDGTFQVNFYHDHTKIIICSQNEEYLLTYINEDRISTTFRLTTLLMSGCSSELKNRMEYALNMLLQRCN
Muscarinic acetylcholine receptor M3, sequence (P20309 whole entry): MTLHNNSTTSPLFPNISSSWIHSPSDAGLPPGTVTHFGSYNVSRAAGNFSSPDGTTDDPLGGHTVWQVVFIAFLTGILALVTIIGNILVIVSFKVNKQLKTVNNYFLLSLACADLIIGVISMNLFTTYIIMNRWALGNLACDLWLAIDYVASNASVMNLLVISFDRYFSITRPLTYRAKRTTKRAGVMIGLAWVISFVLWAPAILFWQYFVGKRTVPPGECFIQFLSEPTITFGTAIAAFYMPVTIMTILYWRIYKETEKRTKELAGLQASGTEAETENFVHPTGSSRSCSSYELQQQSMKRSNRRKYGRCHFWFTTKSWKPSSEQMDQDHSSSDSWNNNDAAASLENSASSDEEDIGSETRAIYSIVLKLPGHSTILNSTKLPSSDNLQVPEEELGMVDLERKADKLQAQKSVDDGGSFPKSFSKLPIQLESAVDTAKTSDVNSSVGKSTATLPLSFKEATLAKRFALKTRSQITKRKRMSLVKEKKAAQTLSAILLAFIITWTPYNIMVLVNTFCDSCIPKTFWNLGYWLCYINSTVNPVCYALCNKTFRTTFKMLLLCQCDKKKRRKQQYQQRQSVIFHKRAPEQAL
Description for in vitro: Permeability of the compound by PAMPA

Compound `CC(C)CCn1c(=O)c2ccccc2n2c(=S)[nH]nc12` came in with a solubility in data set [1] of 8 µg/mL (≈ 27.7 µM). In addition, in data set [2], the pIC50 was 5.76.
In the case of `O=c1c2cc(F)ccc2n2c(=S)[nH]nc2n1CC1CC1`, in [3], the “inhibition (INH)” value is “Not Active”. In addition, the solubility in data set [1] was 16.2 µg/mL (≈ 55.8 µM). Moreover, the inhibition entry in [4] was “inactive”. In “in vitro”, this compound yielded a Papp of 46 ×10⁻⁶ cm/s. In addition, the t1/2 in data set [5] is over 30 min.
In the case of `C[C@H]1C[C@@H]1n1c(=O)c2cc(F)ccc2n2c(=S)[nH]nc12` (relative stereo), the permeability in [6] was 188 10^-6 cm/s. For the same compound, in [1], the solubility turned out to be 13.2 µg/mL (≈ 45.5 µM). In addition, the t1/2 in [5] is recorded as over 30 min.
Compound `CCOCCCn1c(=O)c2ccccc2n2c(S)nnc12` yielded a solubility in data set [1] of 15.5 µg/mL (≈ 50.9 µM). For the same compound, in data set [2], the pIC50 was 5.77.
`CCCCn1c(=O)c2ccccc2n2c(S)nnc12` displayed a solubility in [1] of 8.5 µg/mL (≈ 31 µM). Also, the pIC50 in data set [2] was 5.99. The compound also had a Papp in “in vitro” of 77.5 ×10⁻⁶ cm/s. Also, the t1/2 in data set [5] was over 30 min.
In the case of `CCCn1c(=O)c2ccccc2n2c(SC)nnc12`, the Activity is listed as 50% in the data set on HeLa [7] and “Non-Toxic” in data set [12]. Also, the Drug metabolism entry in [8] and in data set [11] was “Metabolite_Detected” in each case. Besides, the values for the inhibition in [9] and in [17] were 20% and 50%, respectively. Besides, the pIC50 in [2] was under 4.30. The t1/2 entry in data set [10], in data set [15] and in data set [16] was “<= 120 min” throughout. Also, the outcome with HeLa [13], with HeLa [14] and with HeLa [18] was Active.
`CC(=O)N1CCC[C@H]1C(=O)N[C@@H](CC(C)C)C(=O)N[C@@H](Cc1cnc[nH]1)C(=O)N[C@@H](CO)C(=O)N[C@H](C(=O)O)[C@@H](C)O`: the inhibition result in data set [4] is “inactive”.
For `CCCn1c(=O)c2cccc(F)c2n2c(SC)nnc12`, the outcome with HeLa [13] and with HeLa [18] was Active.
On to `CCCn1c(=O)c2cc(F)ccc2n2c(SC)nnc12`, for which the t1/2 result in data set [10], in data set [15] and in [16] was “<= 120 min” throughout. Further, the result in the data set on HeLa [13] and in the data set on HeLa [18] was Active.
Take `CC(=O)N1CCC[C@H]1C(=O)N[C@@H](CC(C)C)C(=O)N[C@@H](Cc1cnc[nH]1)C(=O)N[C@@H](CO)C(=O)N[C@H](C(=O)O)[C@@H](C)OP(=O)(O)O`: the inhibition entry in [4] is “inactive”.
Compound `NCCCn1c(=O)c2cc(F)ccc2n2c(=S)[nH]nc12` displayed a solubility in data set [1] of 27 µg/mL (≈ 92 µM). Moreover, the inhibition at 10 µM in data set [19] is 73%; in [20] it was 100%; in data set [21], 84%. Besides, the Papp in “in vitro” is 16.8 ×10⁻⁶ cm/s. The t1/2 in data set [5] is on record as over 30 min.
In [1], `C=CCn1c(=O)c2ccccc2n2c(S)nnc12` showed a solubility of 19.4 µg/mL (≈ 75.1 µM). The pIC50 in data set [2] is 5.88.
